Data on two molecules can be found in patent US20160175241A1, “COMPOSITION FOR SKIN ANTI-AGEING TREATMENT” (POLICHEM SA, priority 2013, published 2016).

Assay [1] concerns skin structure and firmness. Conditions: two concentrations, 0.1% and 1%; cited from earlier work.
Assay [2] relates to Reactive oxygen species (ROS) measured on keratinocytes after exposure to Ultraviolet light A (UVA). Nature of the assay: ROS formation in keratinocytes after UVA exposure (DCA fluorescence). Conditions: Homo sapiens, Keratinocyte, light or radiation study, 0.15 mg/ml (positive control). It counts as cell-based. The method, then: To the test the different antioxidant activity of the composition according to the Example 1 versus the Comparative Compositions 2-5 of the Example 2, they were tested at different concentrations (0.500-0.016 mg/ml) on Reactive oxygen species (ROS) measured on keratinocytes after exposure to Ultraviolet light A (UVA), with and without the tested sample, evaluating the cell viability after UVA stress by Neutral red uptake (NRU) test: cell survival assay using cultured human keratinocytes in monolayer cultures with and without the tested sample.
Human primary keratinocytes come from paediatric foreskins, with ethic committee's permission, from pre-planned routine surgery. The epidermis was separated from dermis by incubation with […] and trypsinized to generate single cell suspension.
Keratinocytes were cultivated in Dulbecco's modified Eagle's and Ham's F12 media (3:1) enriched with 10% foetal calf serum (v/v) and specific enrichments.
These cells multiply in culture until a cell monolayer is reached. […] Once a confluence of 60-70% has been reached, fresh medium is added with scalar dilutions of the tested sample. Non-treated cells are used as negative controls. At this stage the cell cultures were treated with different dilutions of the test compound and of the controls to obtain final concentrations ranging from 0.5 to 0.016 mg/ml. For each dilution, three replicate tests were performed. The product was dissolved in the culture medium. […] The cell vitality is determined after UVA exposure and without UV exposure.
After having exposed the cells to the tested sample, the cell culture medium is removed and the cells are washed in PBS. […] DCA is reacting with free radicals in the medium, originating a fluorescent derivative, and the fluorimeter reading allows obtaining a quantitative data related to the ROS content in the cells.
After suitable incubation, the DCA solution has been discharged and the cells have then been exposed for different times to UVA irradiation and soon after read in the fluorimeter, as described (Toxicol. Letters 1997-93:47-54).

With `COc1cc(O)c(CC=C(C)C)c(O)c1C(=O)/C=C/c1ccc(O)cc1` [xanthohumol], the “improving skin structure and firmness” value in assay [1] is “resulted efficacious”.
With `O=C1O[C@H]([C@@H](O)CO)C(O)=C1O` [Vitamin C], the inhibition at 150 µg/mL worked out at 19.6% in assay [2] (4′ UVA (1 J/cm2)), 13.4% in assay [2] (8′ UVA (2 J/cm2)) and 14.8% in assay [2] (12′ UVA (3 J/cm2)).

Usually inhibition stands for the drop in the measured response relative to a control, in per cent. The low end stands for little suppression, the high end for strong suppression.
